{
  "source": "patent US10961231B2",
  "about": "“NTCP inhibitors” (National Institute of Biological Sciences, Beijing, priority 2018, dated 2021)",
  "data": [
    {"target": "T1, NTCP (Homo sapiens, UniProt Q14973)", "T1 sequence (Q14973 1-349)": "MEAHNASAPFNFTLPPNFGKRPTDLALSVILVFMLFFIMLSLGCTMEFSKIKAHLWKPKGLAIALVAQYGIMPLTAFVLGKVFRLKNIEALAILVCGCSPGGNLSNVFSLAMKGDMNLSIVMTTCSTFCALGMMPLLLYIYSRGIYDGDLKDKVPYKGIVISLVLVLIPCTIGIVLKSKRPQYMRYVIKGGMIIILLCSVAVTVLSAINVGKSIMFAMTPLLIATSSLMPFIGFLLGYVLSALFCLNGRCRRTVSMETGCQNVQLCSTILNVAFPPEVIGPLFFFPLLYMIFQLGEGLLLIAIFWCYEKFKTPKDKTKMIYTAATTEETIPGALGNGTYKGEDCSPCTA", "experiment": "[3H]-TCA uptake assay (NTCP inhibition)", "format": "cell-based", "conditions": "IC50, given as a range, marked * (asterisk not explained)", "procedure": "(§1) [^3H]-TCA uptake assay. PTH and HepG2-NTCP cells were cultured in PMM for 24 hours to induce NTCP expression. After treated by DMSO or test compounds for 2 hours, the cells were then incubated with 1 μM [^3H]-taurocholate acid dissolved in Na^+ Ringer's buffer (the concentration of Na was 145 mM) for 15 minutes at 37° C. Subsequently, the cells were washed once in phosphate-buffered saline (PBS) and lysed in 50 μL 1% TritonX-100 in H2O for 5 minutes at room temperature. The lysate were totally transferred into a liquid scintillation 96 well plate and mixed with 200 μL liquid scintillation cocktail (Ultima Gold XR, PerkinElmer). Liquid scintillation counting was performed on a PerkinElmer 1450 LSC liquid scintillation counter.", "units": {"IC50": "nM"}, "values": [
      {"smiles": "CCC1NC(=O)C(C2OC(Oc3cccc(OCc4cccnc4)c3)CC2C)N(C)C(=O)C(C(C)C)N(C)C(=O)C(CC(C)C)N(C)C(=O)C(CC(C)C)N(C)C(=O)C(C)NC(=O)C(C)NC(=O)C(CC(C)C)N(C)C(=O)C(C(C)C)NC(=O)C(CC(C)C)N(C)C(=O)CN(C)C1=O", "note": "(stereo not drawn) [53A + B(1:1.5)-o]", "IC50": "1000 to 100000"},
      {"smiles": "CCC1NC(=O)C(C2OC(Oc3ccccc3)CC2C)N(C)C(=O)C(C(C)C)N(C)C(=O)C(CC(C)C)N(C)C(=O)C(CC(C)C)N(C)C(=O)C(C)NC(=O)C(C)NC(=O)C(CC(C)C)N(C)C(=O)C(C(C)C)NC(=O)C(CC(C)C)N(C)C(=O)CN(C)C1=O", "note": "(stereo not drawn) [Compound 1B-o]", "IC50": "1000 to 100000"},
      {"smiles": "CCC1NC(=O)C(C2OC(Oc3ccc(C)cc3)CC2C)N(C)C(=O)C(C(C)C)N(C)C(=O)C(CC(C)C)N(C)C(=O)C(CC(C)C)N(C)C(=O)C(C)NC(=O)C(C)NC(=O)C(CC(C)C)N(C)C(=O)C(C(C)C)NC(=O)C(CC(C)C)N(C)C(=O)CN(C)C1=O", "note": "(stereo not drawn) [Compound 2A-o]", "IC50": "1000 to 100000"}
    ]},
    {"target": "T1, NTCP", "experiment": "[3H]-TCA uptake assay (NTCP inhibition)", "format": "cell-based", "conditions": "IC50, given as a range; assay not given", "procedure": "as §1", "units": {"IC50": "nM"}, "values": [
      {"smiles": "CCC1NC(=O)C(C2OC(Sc3ccccc3)CC2C)N(C)C(=O)C(C(C)C)N(C)C(=O)C(CC(C)C)N(C)C(=O)C(CC(C)C)N(C)C(=O)C(C)NC(=O)C(C)NC(=O)C(CC(C)C)N(C)C(=O)C(C(C)C)NC(=O)C(CC(C)C)N(C)C(=O)CN(C)C1=O", "note": "[Compound 1B, [2-((2R,3R)-3-methyl-5-(phenylthio)tetrahydrofuran-2-yl)-2-(methylamino)acetic acid]^1-cyclosporin A]", "IC50": "1000 to 100000"}
    ]},
    {"target": "T1, NTCP", "experiment": "[3H]-TCA uptake assay (NTCP inhibition)", "format": "cell-based", "conditions": "given as a range; assay not given", "procedure": "as §1", "units": {"IC50": "nM"}, "values": [
      {"smiles": "CCC1NC(=O)C(C2OC(Oc3cccc(OCc4ccccc4)c3)CC2C)N(C)C(=O)C(C(C)C)N(C)C(=O)C(CC(C)C)N(C)C(=O)C(CC(C)C)N(C)C(=O)C(C)NC(=O)C(C)NC(=O)C(CC(C)C)N(C)C(=O)C(C(C)C)NC(=O)C(CC(C)C)N(C)C(=O)CN(C)C1=O", "note": "(single isomer, unassigned) [Compound 12A-o]", "IC50": "1 to 1000"},
      {"smiles": "CCC1NC(=O)C(C2OC(Oc3cccc(OCc4ccccc4)c3)CC2C)N(C)C(=O)C(C(C)C)N(C)C(=O)C(CC(C)C)N(C)C(=O)C(CC(C)C)N(C)C(=O)C(C)NC(=O)C(C)NC(=O)C(CC(C)C)N(C)C(=O)C(C(C)C)NC(=O)C(CC(C)C)N(C)C(=O)CN(C)C1=O", "note": "(single isomer, unassigned) [Compound 12B-o]", "IC50": "1 to 1000"},
      {"smiles": "CCC1NC(=O)C(C2OC(OC(C)c3ccccc3)CC2C)N(C)C(=O)C(C(C)C)N(C)C(=O)C(CC(C)C)N(C)C(=O)C(CC(C)C)N(C)C(=O)C(C)NC(=O)C(C)NC(=O)C(CC(C)C)N(C)C(=O)C(C(C)C)NC(=O)C(CC(C)C)N(C)C(=O)CN(C)C1=O", "note": "(single isomer, unassigned) [Compound 78A]", "IC50": "1 to 1000"},
      {"smiles": "CCC1NC(=O)C(C2OC(OC(C)c3ccccc3)CC2C)N(C)C(=O)C(C(C)C)N(C)C(=O)C(CC(C)C)N(C)C(=O)C(CC(C)C)N(C)C(=O)C(C)NC(=O)C(C)NC(=O)C(CC(C)C)N(C)C(=O)C(C(C)C)NC(=O)C(CC(C)C)N(C)C(=O)CN(C)C1=O", "note": "(single isomer, unassigned) [Compound 78B]", "IC50": "1 to 1000"},
      {"smiles": "CCC1NC(=O)C(C2OC(OC(C)c3ccccc3)CC2C)N(C)C(=O)C(C(C)C)N(C)C(=O)C(CC(C)C)N(C)C(=O)C(CC(C)C)N(C)C(=O)C(C)NC(=O)C(C)NC(=O)C(CC(C)C)N(C)C(=O)C(C(C)C)NC(=O)C(CC(C)C)N(C)C(=O)CN(C)C1=O", "note": "(single isomer, unassigned) [Compound 79A]", "IC50": "1 to 1000"},
      {"smiles": "CCC1NC(=O)C(C2OC(OCc3ccccc3OC)CC2C)N(C)C(=O)C(C(C)C)N(C)C(=O)C(CC(C)C)N(C)C(=O)C(CC(C)C)N(C)C(=O)C(C)NC(=O)C(C)NC(=O)C(CC(C)C)N(C)C(=O)C(C(C)C)NC(=O)C(CC(C)C)N(C)C(=O)CN(C)C1=O", "note": "(single isomer, unassigned) [Compound 82A]", "IC50": "1 to 1000"},
      {"smiles": "CCC1NC(=O)C(C2OC(OCc3ccccc3OC)CC2C)N(C)C(=O)C(C(C)C)N(C)C(=O)C(CC(C)C)N(C)C(=O)C(CC(C)C)N(C)C(=O)C(C)NC(=O)C(C)NC(=O)C(CC(C)C)N(C)C(=O)C(C(C)C)NC(=O)C(CC(C)C)N(C)C(=O)CN(C)C1=O", "note": "(single isomer, unassigned) [Compound 82B]", "IC50": "1 to 1000"},
      {"smiles": "CCC1NC(=O)C(C2OC(OCc3cccc(Cl)c3OC)CC2C)N(C)C(=O)C(C(C)C)N(C)C(=O)C(CC(C)C)N(C)C(=O)C(CC(C)C)N(C)C(=O)C(C)NC(=O)C(C)NC(=O)C(CC(C)C)N(C)C(=O)C(C(C)C)NC(=O)C(CC(C)C)N(C)C(=O)CN(C)C1=O", "note": "(single isomer, unassigned) [Compound 88A]", "IC50": "1 to 1000"},
      {"smiles": "CCC1NC(=O)C(C2OC(OCc3cccc(Cl)c3OC)CC2C)N(C)C(=O)C(C(C)C)N(C)C(=O)C(CC(C)C)N(C)C(=O)C(CC(C)C)N(C)C(=O)C(C)NC(=O)C(C)NC(=O)C(CC(C)C)N(C)C(=O)C(C(C)C)NC(=O)C(CC(C)C)N(C)C(=O)CN(C)C1=O", "note": "(single isomer, unassigned) [Compound 88B]", "IC50": "1 to 1000"},
      {"smiles": "CCC1NC(=O)C(C2OC(OCc3ccc(Cl)cc3Cl)CC2C)N(C)C(=O)C(C(C)C)N(C)C(=O)C(CC(C)C)N(C)C(=O)C(CC(C)C)N(C)C(=O)C(C)NC(=O)C(C)NC(=O)C(CC(C)C)N(C)C(=O)C(C(C)C)NC(=O)C(CC(C)C)N(C)C(=O)CN(C)C1=O", "note": "(single isomer, unassigned) [Compound 89A]", "IC50": "1 to 1000"},
      {"smiles": "CCC1NC(=O)C(C2OC(OCc3ccc(Cl)cc3Cl)CC2C)N(C)C(=O)C(C(C)C)N(C)C(=O)C(CC(C)C)N(C)C(=O)C(CC(C)C)N(C)C(=O)C(C)NC(=O)C(C)NC(=O)C(CC(C)C)N(C)C(=O)C(C(C)C)NC(=O)C(CC(C)C)N(C)C(=O)CN(C)C1=O", "note": "(single isomer, unassigned) [Compound 89B]", "IC50": "1 to 1000"},
      {"smiles": "CCC1NC(=O)C(C2OC(OCc3c(Cl)cccc3Cl)CC2C)N(C)C(=O)C(C(C)C)N(C)C(=O)C(CC(C)C)N(C)C(=O)C(CC(C)C)N(C)C(=O)C(C)NC(=O)C(C)NC(=O)C(CC(C)C)N(C)C(=O)C(C(C)C)NC(=O)C(CC(C)C)N(C)C(=O)CN(C)C1=O", "note": "(single isomer, unassigned) [Compound 90A]", "IC50": "1 to 1000"},
      {"smiles": "CCC1NC(=O)C(C2OC(OCc3c(Cl)cccc3Cl)CC2C)N(C)C(=O)C(C(C)C)N(C)C(=O)C(CC(C)C)N(C)C(=O)C(CC(C)C)N(C)C(=O)C(C)NC(=O)C(C)NC(=O)C(CC(C)C)N(C)C(=O)C(C(C)C)NC(=O)C(CC(C)C)N(C)C(=O)CN(C)C1=O", "note": "(single isomer, unassigned) [Compound 90B]", "IC50": "1 to 1000"},
      {"smiles": "CCC1NC(=O)C(C2OC(OC(C)c3ccc(Cl)c(Cl)c3)CC2C)N(C)C(=O)C(C(C)C)N(C)C(=O)C(CC(C)C)N(C)C(=O)C(CC(C)C)N(C)C(=O)C(C)NC(=O)C(C)NC(=O)C(CC(C)C)N(C)C(=O)C(C(C)C)NC(=O)C(CC(C)C)N(C)C(=O)CN(C)C1=O", "note": "(single isomer, unassigned) [Compound 96A]", "IC50": "1 to 1000"},
      {"smiles": "CCC1NC(=O)C(C2OC(OC(C)c3ccc(Cl)c(Cl)c3)CC2C)N(C)C(=O)C(C(C)C)N(C)C(=O)C(CC(C)C)N(C)C(=O)C(CC(C)C)N(C)C(=O)C(C)NC(=O)C(C)NC(=O)C(CC(C)C)N(C)C(=O)C(C(C)C)NC(=O)C(CC(C)C)N(C)C(=O)CN(C)C1=O", "note": "(single isomer, unassigned) [Compound 97A]", "IC50": "1 to 1000"},
      {"smiles": "CCC1NC(=O)C(C2OC(OCc3cc(F)c(Cl)cc3Cl)CC2C)N(C)C(=O)C(C(C)C)N(C)C(=O)C(CC(C)C)N(C)C(=O)C(CC(C)C)N(C)C(=O)C(C)NC(=O)C(C)NC(=O)C(CC(C)C)N(C)C(=O)C(C(C)C)NC(=O)C(CC(C)C)N(C)C(=O)CN(C)C1=O", "note": "(single isomer, unassigned) [Compound 101A]", "IC50": "1 to 1000"},
      {"smiles": "CCC1NC(=O)C(C2OC(OCc3cc(F)c(Cl)cc3Cl)CC2C)N(C)C(=O)C(C(C)C)N(C)C(=O)C(CC(C)C)N(C)C(=O)C(CC(C)C)N(C)C(=O)C(C)NC(=O)C(C)NC(=O)C(CC(C)C)N(C)C(=O)C(C(C)C)NC(=O)C(CC(C)C)N(C)C(=O)CN(C)C1=O", "note": "(single isomer, unassigned) [Compound 101B]", "IC50": "1 to 1000"},
      {"smiles": "CCC1NC(=O)C(C2OC(OCc3cc(Cl)ccc3Cl)CC2C)N(C)C(=O)C(C(C)C)N(C)C(=O)C(CC(C)C)N(C)C(=O)C(CC(C)C)N(C)C(=O)C(C)NC(=O)C(C)NC(=O)C(CC(C)C)N(C)C(=O)C(C(C)C)NC(=O)C(CC(C)C)N(C)C(=O)CN(C)C1=O", "note": "[98A + B(1:1), [2-((2R,3R)-5-(2,5-dichlorobenzyloxy)-3-methyltetrahydrofuran-2-yl)-2-(methylamino)acetic acid]^1-cyclosporin A]", "IC50": "1 to 1000"},
      {"smiles": "CCC1NC(=O)C(C2OC(OCc3ccc(N4CCOCC4)cc3)CC2C)N(C)C(=O)C(C(C)C)N(C)C(=O)C(CC(C)C)N(C)C(=O)C(CC(C)C)N(C)C(=O)C(C)NC(=O)C(C)NC(=O)C(CC(C)C)N(C)C(=O)C(C(C)C)NC(=O)C(CC(C)C)N(C)C(=O)CN(C)C1=O", "note": "[99A + B(1:1.1), [2-((2R,3R)-3-methyl-5-(4-morpholinobenzyloxy)tetrahydrofuran-2-yl)-2-(methylamino)acetic acid]^1-cyclosporin A]", "IC50": "1 to 1000"},
      {"smiles": "CCC1NC(=O)C(C2OC(Sc3ccc(C)cc3)CC2C)N(C)C(=O)C(C(C)C)N(C)C(=O)C(CC(C)C)N(C)C(=O)C(CC(C)C)N(C)C(=O)C(C)NC(=O)C(C)NC(=O)C(CC(C)C)N(C)C(=O)C(C(C)C)NC(=O)C(CC(C)C)N(C)C(=O)CN(C)C1=O", "note": "[Compound 2A, [2-((2R,3R)-3-methyl-5-(p-tolylthio)tetrahydrofuran-2-yl)-2-(methylamino)acetic acid]^1-cyclosporin A]", "IC50": "1 to 1000"}
    ]}
  ]
}
